Values quoted from earlier work in publication PMC10928227, “Assessing biologic/toxicologic effects of extractables from plastic contact materials for advanced therapy manufacturing using cell painting assay and cytotoxicity screening” (Scientific Reports, 2024).
Where two headings read alike, the source gives them in different places.

Key:
[1] = cited from earlier work
[2] = cited from earlier work; remark: listed apart in the source
[3] = in Vivo, Database Genotoxicity & Carcinogenicity ECVAM, ref EURL ECVAM genotoxicity and carcinogencity database, Madia F et al, 2020
[4] = Salmonella typhimurium, Strain TA 97, in Vitro, Database: Bacterial mutagenicity ISSSTY, ref CCRIS database,Toxnet databases (Romualdo Benigni)
[5] = Salmonella typhimurium, Strain TA 98, in Vitro, Database: Bacterial mutagenicity ISSSTY, ref CCRIS database,Toxnet databases (Romualdo Benigni)
[6] = Salmonella typhimurium, Strain TA 100, in Vitro, Database: Bacterial mutagenicity ISSSTY, ref CCRIS database,Toxnet databases (Romualdo Benigni)
[7] = Salmonella typhimurium, Strain TA 102, in Vitro, Database: Bacterial mutagenicity ISSSTY, ref CCRIS database,Toxnet databases (Romualdo Benigni)
[8] = Salmonella typhimurium, Strain TA 1535, in Vitro, Database: Bacterial mutagenicity ISSSTY, ref CCRIS database,Toxnet databases (Romualdo Benigni)
[9] = Salmonella typhimurium, Strain TA 1537, in Vitro, Database: Bacterial mutagenicity ISSSTY, ref CCRIS database,Toxnet databases (Romualdo Benigni)
[10] = Salmonella typhimurium, Strain TA 1538, in Vitro, Database: Bacterial mutagenicity ISSSTY, ref CCRIS database,Toxnet databases (Romualdo Benigni)
[11] = in Vitro, Database Genotoxicity & Carcinogenicity ECVAM, ref EURL ECVAM genotoxicity and carcinogencity database, Madia F et al, 2020
[12] = in Vitro, Salmonella typhimurium, Strain TA 97, Database Genotoxicity OASIS, ref P&G
[13] = in Vitro, Salmonella typhimurium, Strain TA 98, Database Genotoxicity OASIS, ref P&G
[14] = in Vitro, Salmonella typhimurium, Strain TA 100, Database Genotoxicity OASIS, ref P&G
[15] = in Vitro, Salmonella typhimurium, Strain TA 102, OECD Guideline 471, Database Genotoxicity OASIS, ref CCRIS database,Toxnet databases
[16] = in Vitro, Salmonella typhimurium, Strain TA 1535, Database Genotoxicity OASIS, ref P&G
[17] = in Vitro, Salmonella typhimurium, Strain TA 1537, Database Genotoxicity OASIS, ref P&G
[18] = in Vitro, Salmonella typhimurium, Strain TA 1538, Database Genotoxicity OASIS, ref P&G
[19] = in Vitro, Salmonella typhimurium, No Strain Information, Database Genotoxicity OASIS, ref Journal of Medicinal Chemistry 48 (1), pp. 312-32, 25, Kazius J, McGuire R., Bursi R

Structure (SMILES): Nc1ccccc1 [62-53-3]
- Chromosome aberration, in Vivo Mammalian Chromosome Aberration Test ([1]; Database Genotoxicity & Carcinogenicity ECVAM, ref EURL ECVAM genotoxicity and carcinogencity database, Madia F et al, 2020): Positive
- Chromosome aberration, Micronucleus Assay [1, 3]: Positive
- DNA damage and repair, COMET or Alkaline Elution [1, 3]: Positive
- Chromosome aberration, Micronucleus Assay ([1]; in Vivo, Database Genotoxicity OASIS, ref RESS, NB. et. al., MUTAT. RES. 521(1-2):201-208, 2002): Positive
- DNA damage and repair, Single Cell Gel Electrophoresis (comet) Assay ([1]; in Vivo, Database Genotoxicity OASIS, ref Yu F. Sasaki et. al., 2000, Critical Reviews in Toxicology,30(6),Pp.629-799): Positive
- Genetic Toxicity, Genotoxicity ([2]; Mammalian cell line, test guideline not reported, scale Gene mutation I, ref Database: Food TOX Hazard EFSA): Positive
- Gene mutation, Bacterial Reverse Mutation Assay (e.g. Ames Test) [2, 4]: Negative
- Gene mutation, Bacterial Reverse Mutation Assay (e.g. Ames Test) ([2]; Salmonella typhimurium, Strain TA 98(NR), in Vitro, Database: Bacterial mutagenicity ISSSTY, ref CCRIS database,Toxnet databases (Romualdo Benigni)): Negative
- Gene mutation, Bacterial Reverse Mutation Assay (e.g. Ames Test) [2, 5]: Negative
- Gene mutation, Bacterial Reverse Mutation Assay (e.g. Ames Test) ([2]; Salmonella typhimurium, Strain TA 98, in Vitro, Database: Genotoxicity OASIS, ref Mutation Research, 168 (1986) 69-240, U.S. Environmental Protection Agency): Negative
- Gene mutation, Bacterial Reverse Mutation Assay (e.g. Ames Test) ([2]; Salmonella typhimurium, Strain TA 98, in Vitro, Database: Genotoxicity OASIS, ref P&G): Negative
- Gene mutation, Bacterial Reverse Mutation Assay (e.g. Ames Test) [2, 6]: Negative
- Gene mutation, Bacterial Reverse Mutation Assay (e.g. Ames Test) ([2]; Salmonella typhimurium, Strain TA 100, in Vitro, Database: Genotoxicity OASIS, ref Mutation Research, 168 (1986) 69-240, U.S. Environmental Protection Agency): Negative
- Gene mutation, Bacterial Reverse Mutation Assay (e.g. Ames Test) ([2]; Salmonella typhimurium, Strain TA 100, in Vitro, Database: Genotoxicity OASIS, ref P&G): Negative
- Gene mutation, Bacterial Reverse Mutation Assay (e.g. Ames Test) [2, 7]: Negative
- Gene mutation, Bacterial Reverse Mutation Assay (e.g. Ames Test) [2, 8]: Negative
- Gene mutation, Bacterial Reverse Mutation Assay (e.g. Ames Test) ([2]; Salmonella typhimurium, Strain TA 1535, in Vitro, Database: Genotoxicity OASIS, ref Mutation Research, 168 (1986) 69-240, U.S. Environmental Protection Agency): Negative
- Gene mutation, Bacterial Reverse Mutation Assay (e.g. Ames Test) ([2]; Salmonella typhimurium, Strain TA 1535, in Vitro, Database: Genotoxicity OASIS, ref P&G): Negative
- Gene mutation, Bacterial Reverse Mutation Assay (e.g. Ames Test) [2, 9]: Negative
- Gene mutation, Bacterial Reverse Mutation Assay (e.g. Ames Test) ([2]; Salmonella typhimurium, Strain TA 1537, in Vitro, Database: Genotoxicity OASIS, ref Mutation Research, 168 (1986) 69-240, U.S. Environmental Protection Agency): Negative
- Gene mutation, Bacterial Reverse Mutation Assay (e.g. Ames Test) ([2]; Salmonella typhimurium, Strain TA 1537, in Vitro, Database: Genotoxicity OASIS, ref P&G): Negative
- Gene mutation, Bacterial Reverse Mutation Assay (e.g. Ames Test) [2, 10]: Negative
- Chromosome aberration, in Vitro Mammalian Chromosome Aberration Test ([2]; in Vitro, Chinese hamster, Chinese Hamster Lung (CHL), Duration 6÷18 h, Database Genotoxicity OASIS, ref Sofuni, T., Ed. (1998). Data Book of Chromosomal Aberration Test In Vitro, Revised Edition): Positive
- Chromosome aberration, Micronucleus Assay [2, 11]: Positive
- Chromosome aberration, in Vitro Mammalian Chromosome Aberration Test [2, 11]: Positive
- Gene mutation, Mammalian Cell Gene Mutation (MLA HPRT) [2, 11]: Positive
- Gene mutation, Bacterial Reverse Mutation Assay (e.g. Ames Test) ([2]; in Vitro, Salmonella typhimurium and Escherichia Coli, Database Genotoxicity & Carcinogenicity ECVAM, ref EURL ECVAM genotoxicity and carcinogencity database, Madia F et al, 2020): Negative
- Gene mutation, Bacterial Reverse Mutation Assay (e.g. Ames Test) [2, 12]: Negative
- Gene mutation, Bacterial Reverse Mutation Assay (e.g. Ames Test) ([2]; in Vitro, Salmonella typhimurium, Strain TA 98, Database Genotoxicity OASIS, ref Mutation Research, 168 (1986) 69-240, U.S. Environmental Protection Agency): Negative
- Gene mutation, Bacterial Reverse Mutation Assay (e.g. Ames Test) [2, 13]: Negative
- Gene mutation, Bacterial Reverse Mutation Assay (e.g. Ames Test) [2, 14]: Negative
- Gene mutation, Bacterial Reverse Mutation Assay (e.g. Ames Test) [2, 15]: Negative
- Gene mutation, Bacterial Reverse Mutation Assay (e.g. Ames Test) [2, 16]: Negative
- Gene mutation, Bacterial Reverse Mutation Assay (e.g. Ames Test) ([2]; in Vitro, Salmonella typhimurium, Strain TA 1537, Database Genotoxicity OASIS, ref Mutation Research, 168 (1986) 69-240, U.S. Environmental Protection Agency): Negative
- Gene mutation, Bacterial Reverse Mutation Assay (e.g. Ames Test) [2, 17]: Negative
- Gene mutation, Bacterial Reverse Mutation Assay (e.g. Ames Test) [2, 18]: Negative
- Genetic Toxicity, unscheduled DNA synthesis (UDS in Vitro) ([2]; in Vitro, scale Mutagenicity I (ECVAM), ref EURL ECVAM genotoxicity and carcinogencity database, Madia F et al, 2020): Negative

Structure (SMILES): OCC(O)CO [56-81-5]
- Chromosome aberration, in Vitro Mammalian Chromosome Aberration Test ([2]; in Vitro, Chinese hamster, Chinese Hamster Lung (CHL), Database Genotoxicity OASIS, ref ECHA, Registration dossier): Negative
- Chromosome aberration, in Vitro Mammalian Chromosome Aberration Test ([2]; in Vitro, Chinese hamster, Chinese Hamster Lung (CHL), Duration 24÷48 h, Database Genotoxicity OASIS, ref Sofuni, T., Ed. (1998). Data Book of Chromosomal Aberration Test In Vitro, Revised Edition): Negative

Structure (SMILES): CC(C)(c1ccc(O)cc1)c1ccc(O)cc1 [Bisphenol A]
- Risk based on in vitro genotoxicity data from database (from QSAR-toolbox) ([2]; not checked for in vivo relevance, ref QSAR Toolbox 4.5 database): Positive in vitro data

Structure (SMILES): CCC(C)=O [78-93-3]
- Gene mutation, Bacterial Reverse Mutation Assay (e.g. Ames Test) [2, 4]: Negative
- Gene mutation, Bacterial Reverse Mutation Assay (e.g. Ames Test) [2, 5]: Negative
- Gene mutation, Bacterial Reverse Mutation Assay (e.g. Ames Test) [2, 6]: Negative
- Gene mutation, Bacterial Reverse Mutation Assay (e.g. Ames Test) [2, 7]: Negative
- Gene mutation, Bacterial Reverse Mutation Assay (e.g. Ames Test) ([2]; Salmonella typhimurium, Strain TA 104, in Vitro, Database: Bacterial mutagenicity ISSSTY, ref CCRIS database,Toxnet databases (Romualdo Benigni)): Negative
- Gene mutation, Bacterial Reverse Mutation Assay (e.g. Ames Test) [2, 8]: Negative
- Gene mutation, Bacterial Reverse Mutation Assay (e.g. Ames Test) [2, 9]: Negative
- Gene mutation, Bacterial Reverse Mutation Assay (e.g. Ames Test) [2, 10]: Negative
- Gene mutation, Bacterial Reverse Mutation Assay (e.g. Ames Test) [2, 19]: Negative
- Gene mutation, Bacterial Reverse Mutation Assay (e.g. Ames Test) [2, 12]: Negative
- Gene mutation, Bacterial Reverse Mutation Assay (e.g. Ames Test) [2, 13]: Negative
- Gene mutation, Bacterial Reverse Mutation Assay (e.g. Ames Test) [2, 14]: Negative
- Gene mutation, Bacterial Reverse Mutation Assay (e.g. Ames Test) [2, 15]: Negative
- Gene mutation, Bacterial Reverse Mutation Assay (e.g. Ames Test) [2, 16]: Negative
- Gene mutation, Bacterial Reverse Mutation Assay (e.g. Ames Test) [2, 17]: Negative
- Gene mutation, Bacterial Reverse Mutation Assay (e.g. Ames Test) [2, 18]: Negative

Structure (SMILES): CC(=O)c1ccccc1 [98-86-2]
- Gene mutation, Bacterial Reverse Mutation Assay (e.g. Ames Test) [2, 4]: Negative
- Gene mutation, Bacterial Reverse Mutation Assay (e.g. Ames Test) [2, 5]: Negative
- Gene mutation, Bacterial Reverse Mutation Assay (e.g. Ames Test) [2, 6]: Negative
- Gene mutation, Bacterial Reverse Mutation Assay (e.g. Ames Test) [2, 7]: Negative
- Gene mutation, Bacterial Reverse Mutation Assay (e.g. Ames Test) [2, 8]: Negative
- Gene mutation, Bacterial Reverse Mutation Assay (e.g. Ames Test) [2, 9]: Negative
- Gene mutation, Bacterial Reverse Mutation Assay (e.g. Ames Test) [2, 19]: Negative
- Gene mutation, Bacterial Reverse Mutation Assay (e.g. Ames Test) ([2]; in Vitro, Salmonella typhimurium, Strain TA 97, Database Bacterial mutagenicity ISSSTY, ref CCRIS database,Toxnet databases, Romualdo Benigni, 02.5.2011): Negative
- Gene mutation, Bacterial Reverse Mutation Assay (e.g. Ames Test) ([2]; in Vitro, Salmonella typhimurium, Strain TA 97, Database Genotoxicity OASIS, ref FUJITA H. AND SASAKI M., KENKYU NENPO - TOKYO-TORITSU EISEI KENKYUSHO 38:423-430, 1987): Negative
- Gene mutation, Bacterial Reverse Mutation Assay (e.g. Ames Test) ([2]; in Vitro, Salmonella typhimurium, Strain TA 98, Database Bacterial mutagenicity ISSSTY, ref CCRIS database,Toxnet databases, Romualdo Benigni, 02.5.2011): Negative
- Gene mutation, Bacterial Reverse Mutation Assay (e.g. Ames Test) ([2]; in Vitro, Salmonella typhimurium, Strain TA 102, Database Genotoxicity OASIS, ref FUJITA H. AND SASAKI M., KENKYU NENPO - TOKYO-TORITSU EISEI KENKYUSHO 38:423-430, 1987): Negative

Structure (SMILES): Cc1cc(C)c(C(=O)P(=O)(c2ccccc2)c2ccccc2)c(C)c1 [75980-60-8]
- Chromosome aberration, in Vitro Mammalian Chromosome Aberration Test ([2]; in Vitro, Chinese hamster, Chinese Hamster Cells, Database Genotoxicity OASIS, ref Scientific Committee on Consumer Safety ( SCCS), 27 March 2014, SCCS/1528/14): Negative
